The values that follow come from patent US9707212B2, “S-nitrosoglutathione reductase inhibitors” (Nivalis Therapeutics, Inc., priority 2010, dated 2017).

Broadly, the bioavailability is the share of a dose that reaches the circulation, judged against a reference dose that is usually intravenous. High values mean much systemic uptake, low ones little systemic uptake.

A short description of data set [1]: Mouse pharmacokinetic (PK) study. The note with it: mice; for bioavailability: male, BALB/c, mouse, plasma, PO 10 mg/kg, IV 2 mg/kg. Format: in vivo, male BALB/c mice. An excerpt:
The mouse was used to determine the pharmacokinetics of compounds of the invention. This species is widely used to assess the bioavailability of compounds by administering both oral (PO) and intravenous (IV) test articles. Efficacy of the compounds of the invention was compared by assessing plasma exposure in male BALB/c mice either via IV or PO administration at the times of peak activity.
Compounds of the invention were reconstituted in a phosphate buffered saline (PBS)/10% Solutol (HS 15) clear solution resulting in a concentration of 0.2 mg/ml and administered to mice (2 mg/kg) as a single IV dose. Animals were dosed via the lateral tail vein. Blood samples were collected at designated time points (0.083, 0.25, 0.5, 1, 2, 4, 8, 16, 24 hours) by cardiac puncture under isoflurane anesthesia (up to 1 ml blood per animal). The blood was collected into tubes containing Li-Heparin. The blood samples were kept on ice until centrifugation within approximately 30 minutes of collection. The plasma was transferred into labeled polypropylene tubes and frozen at −70° C. until analyzed by LC/MS/MS.
The compounds of the invention were reconstituted in 40% Propylene Glycol/40% Propylene Carbonate/20% of a 5% Sucrose clear solution resulting in a concentration of 2 mg/ml and administered to mice (10 mg/kg) as a single oral dose via gavage. Blood samples were collected at 0.25, 0.5, 1, 2, 4, 8, 12, 16, 20 and 24 hours post dose by cardiac puncture under isoflurane anesthesia. The blood was collected in tubes containing Li-Heparin. The blood samples were kept on ice until centrifugation within approximately 30 minutes of collection. The plasma was transferred into labeled polypropylene tubes and frozen at −70° C. until analyzed by LC/MS/MS.
Plasma samples at each time point were analyzed using a LC-MS/MS with a lower limit of quantification (LLOQ) of 1 ng/ml. Plasma was analyzed to determine the amount of the compound of the invention in each sample and regression curves generated for each compounds of the invention in the relevant matrixes.
WinNonlin analysis was used for calculating PK parameters for both the IV and PO administrations: • PK parameters for IV portion—AUClast; AUCINF; T1/2; Cl; Vss; Cmax; MRT • PK parameters for PO portion—AUClast; AUCINF; T1/2; Cmax; Cl, MRT.
In addition to the above PK parameters, bioavailability (% F) was calculated.

The test system of the next data set is acute DSS-induced IBD. Description: Acute prophylactic model of DSS-induced IBD in mice. Format: in vivo, male C57Bl/6 mice. The note with it: for effect on colon injury: mouse model of acute DSS-induced IBD; for decrease of percent of mice with severe colon injury scores via endoscopy, of vehicle control / decrease of percent of mice with severe colon injury scores via histopathology, of vehicle control: prophylactic regimen. An excerpt:
Acute and chronic models of dextran sodium sulfate (DSS)-induced IBD in mice were used to explore efficacy of GSNORi against this disease. Acute and chronic DSS-induced IBD are widely used and well characterized models that induce pathological changes in the colon similar to those observed in the human disease. In these models and in human disease, epithelial cells within the crypts of the colon are disrupted, leading to dysfunction of the epithelial barrier and the ensuing tissue inflammation, edema, and ulceration. GSNORi therapy may benefit IBD by restoring s-nitrosoglutathione (GSNO) levels, and thus prevent or reverse the epithelial barrier dysfunction. Experimental IBD was induced by administration of DSS in the drinking water of male C57Bl/6 mice (N=8 to 10 mice per group) for 6 consecutive days. GSNORi was dosed orally at doses of 0.1 to 10 mg/kg/day for 10 days starting two days prior to and continuing two days post DSS exposure. Two days post DSS exposure, the effect of GSNORi was assessed in a blinded fashion via endoscopy and histopathology using a five point scale ranging from a score=0 (normal tissue) through a score=4 (ulcerative tissue damage and marked pathological changes). Levels of circulating cytokines involved in inflammatory pathways were also assessed. The effect of GSNORi was compared to vehicle treated controls. The corticosteroid, prednisolone, was used as the positive control in this study and was administered daily at 3 mg/kg/day via oral dosing. Naïve mice (N=5) were also assessed as a normal tissue control.

For data set [2], the system named is cigarette smoke-induced COPD. Description: Acute (4 day) cigarette smoke exposure COPD model. Particulars: oral 10 mg/kg/day for 7 days, acute 4 day smoke model. It is filed as in vivo, female C57Bl/6 mice. On the procedure:
The efficacy of GSNOR inhibitors was assessed in a mouse model of chronic obstructive pulmonary disease (COPD) induced by short duration (4 days or 11 days) of exposure to cigarette smoke. Infiltration of inflammatory cells into the bronchoalveolar lavage fluid (BALF) and BALF levels of chemokines involved in inflammation and tissue turnover/repair were measured to assess the influences of GSNOR inhibitors on some of the early events associated with the initiation and progression of COPD.
Efficacy of GSNOR inhibitors against COPD was explored using acute (4 day) and subchronic (11 day) models of cigarette smoke-induced COPD in mice. […] In animal models, changes in lung pathology are only evident after extended (several months) duration of exposure to cigarette smoke, thus making chronic models prohibitive as effective screening tools. More recently, models exploring inflammatory responses after short duration (2 weeks or less) of smoke exposure in mice have been utilized as tools for screening efficacy and mechanisms of action of novel therapeutics against COPD. The key roles of inflammation in the initiation and progression of COPD, make these short duration models relevant for initial tests of efficacy of novel therapeutics.
Female C57Bl/6 mice (N=8 per group) were exposed to cigarette smoke using a whole body exposure chamber. Mice were exposed daily for 4 consecutive days to 4 cycles of smoke from 6 sequential cigarettes (Kentucky 3R4F without filter) with a 30 minute smoke free interval between cycles. GSNOR inhibitors were administered daily via oral dosing at 10 mg/kg/day for 7 days starting 2 days prior to smoke exposure and continuing 1 day post-exposure. The effects of GSNOR inhibitors were assessed by quantitating the numbers of total cells, leukocytes, and leukocytes differentials in the BALF via light microscopy and the levels of BALF chemokines via ELISA at approximately 24 h after the last smoke exposure. The effect of GSNOR inhibitors were compared to vehicle treated controls. The PDE4 inhibitor, roflumilast, was used as the positive control for the study. A group of naïve mice (N=8) was exposed to air and used as a negative control for the study.

In data set [3] the test system is cigarette smoke-induced COPD. The data set is described as follows: Subchronic (11 day) cigarette smoke exposure COPD model. The note with it: oral 1 mg/kg/day for 11 days, subchronic 11 day model. Format: in vivo, female C57Bl/6 mice. On the procedure:
The efficacy of GSNOR inhibitors was assessed in a mouse model of chronic obstructive pulmonary disease (COPD) induced by short duration (4 days or 11 days) of exposure to cigarette smoke. Infiltration of inflammatory cells into the bronchoalveolar lavage fluid (BALF) and BALF levels of chemokines involved in inflammation and tissue turnover/repair were measured to assess the influences of GSNOR inhibitors on some of the early events associated with the initiation and progression of COPD. Efficacy of GSNOR inhibitors against COPD was explored using acute (4 day) and subchronic (11 day) models of cigarette smoke-induced COPD in mice. […] In animal models, changes in lung pathology are only evident after extended (several months) duration of exposure to cigarette smoke, thus making chronic models prohibitive as effective screening tools. […] The effects of GSNOR inhibitors were assessed by quantitating the number of total cells, and leukocytes differentials in the BALF via light microscopy at 24 h after the last exposure. The effect of GSNOR inhibitors were compared to vehicle treated controls and expressed as percent inhibition of the cigarette smoke induced increases in BALF cell numbers. […]

Where [4] appears, read: oral 10 mg/kg/day for 10 consecutive days.

For the compound `O=c1c(-c2ccc(-c3nnn[nH]3)cc2)c(C(F)(F)F)oc2cc(O)ccc12` [Example 1, 3-(4-(1H-tetrazol-5-yl)phenyl)-7-hydroxy-2-(trifluoromethyl)-4H-chromen-4-one], in data set [1], the bioavailability lay within 4 to 41%. The “effect on colon injury” value with acute DSS-induced IBD is on record as “attenuated colon injury”. Further, in the data set with acute DSS-induced IBD (setting [4]), the “decrease of percent of mice with severe colon injury scores via endoscopy, of vehicle control” value stood at 75% and the “decrease of percent of mice with severe colon injury scores via histopathology, of vehicle control” value was determined as 17%.
For `O=c1c2ccc(O)cc2oc(C(F)(F)F)c1[C@H]1CC[C@H](C(=O)O)CC1` [Example 3, (trans)-4-(7-hydroxy-4-oxo-2-(trifluoromethyl)-4H-chromen-3-yl)cyclohexanecarboxylic acid], in data set [2], the “effect on BALF chemokines” value is reported as “restored BALF chemokines towards levels observed in naïve mice”, the “effects on BALF cells compared with roflumilast” value is given as “comparable to or greater than those observed for roflumilast”, the “inhibition of smoke-induced increase in eosinophils in BALF” value was 100% and the “inhibition of smoke-induced increase in leukocytes in BALF” value was found to be 100%. Besides, in data set [2], the “inhibition of smoke-induced increase in macrophages in BALF” value is given as 100%, the “inhibition of smoke-induced increase in neutrophils in BALF” value turned out to be 100% and the “inhibition of smoke-induced increase in total cells in BALF” value is reported as 100%. Moreover, the bioavailability in data set [1] was 4 to 41%. Further, the “effect on colon injury” value in the data set with acute DSS-induced IBD was “attenuated colon injury”. Besides, the “decrease of percent of mice with severe colon injury scores via endoscopy, of vehicle control” value with acute DSS-induced IBD (oral 0.1 mg/kg/day for 10 consecutive days) came out at 38%. Moreover, in the data set with acute DSS-induced IBD (oral 1 mg/kg/day for 10 consecutive days), the “decrease of percent of mice with severe colon injury scores via endoscopy, of vehicle control” value is 25%.
Regarding `O=c1[nH]c(-c2ccc(-c3c(C(F)(F)F)oc4cc(O)ccc4c3=O)cc2)no1` [Example 9, 3-(4-(7-hydroxy-4-oxo-2-(trifluoromethyl)-4H-chromen-3-yl)phenyl)-1,2,4-oxadiazol-5(4H)-one], the bioavailability in data set [1] was 4 to 41%.
Compound `Cc1sc2cc(O)ccc2c(=O)c1-c1ccc(-c2nnn[nH]2)cc1` [Example 12, 3-(4-(1H-tetrazol-5-yl)phenyl)-7-hydroxy-2-methyl-4H-thiochromen-4-one] gave a bioavailability in data set [1] of 4 to 41%.
On to `O=C(O)c1ccc(-c2c(C(F)(F)F)oc3cc(O)ccc3c2=O)c(F)c1` [Example 16, 3-fluoro-4-(7-hydroxy-4-oxo-2-(trifluoromethyl)-4H-chromen-3-yl)benzoic acid], for which, in data set [1], the bioavailability was approximately 44%. The “effect on colon injury” value in the data set on acute DSS-induced IBD is given as “attenuated colon injury”. Also, in the data set on acute DSS-induced IBD (setting [4]), the “decrease of percent of mice with severe colon injury scores via endoscopy, of vehicle control” value was 58% and the “decrease of percent of mice with severe colon injury scores via histopathology, of vehicle control” value amounted to 15%. Besides, the “effects on BAL cells compared with roflumilast” value in data set [3] is listed as “comparable to those of roflumilast”.
With `O=C(O)c1ccc(-c2c(C(F)(F)F)oc3cc(O)ccc3c2=O)cc1` [comparator compound, 4-(7-hydroxy-4-oxo-2-(trifluoromethyl)-4H-chromen-3-yl)benzoic acid, reference compound], in data set [1], the bioavailability was approximately 17% and the “clearance (Cl) relative to Example 16” value is reported as “about three times faster than Example 16”.
